# Test results published in paper PMC5464342 (Pharmacology Research & Perspectives, 2017).
# Like-named read-outs stand apart in the source and are kept apart here.
# How the values were obtained:
# [1] = molecular target: T1, wild type aromatase (CYP19A1*1) (Homo sapiens, UniProt P11511); assay: Anti-aromatase activity assay, estrone formation by UPLC/MS/MS, microsomes of HEK293 overexpressing wild type aromatase; format: biochemical
# T1 sequence (P11511 1-503): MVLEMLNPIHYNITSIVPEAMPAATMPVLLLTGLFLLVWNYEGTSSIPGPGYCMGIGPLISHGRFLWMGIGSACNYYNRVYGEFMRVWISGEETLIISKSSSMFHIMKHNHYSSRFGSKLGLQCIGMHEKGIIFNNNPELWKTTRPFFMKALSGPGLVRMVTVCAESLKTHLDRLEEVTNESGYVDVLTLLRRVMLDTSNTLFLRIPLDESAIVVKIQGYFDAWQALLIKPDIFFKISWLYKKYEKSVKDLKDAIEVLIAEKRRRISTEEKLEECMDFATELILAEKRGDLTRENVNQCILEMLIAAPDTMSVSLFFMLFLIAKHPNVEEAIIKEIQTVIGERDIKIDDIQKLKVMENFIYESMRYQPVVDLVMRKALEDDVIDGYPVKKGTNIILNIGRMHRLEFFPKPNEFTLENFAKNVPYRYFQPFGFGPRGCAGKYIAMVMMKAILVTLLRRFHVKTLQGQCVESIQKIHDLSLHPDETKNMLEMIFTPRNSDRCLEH
# [2] = EXE metabolite identification in human liver microsomes by UPLC/MS/MS; format: in vitro ADME; details: 50 μg HLM, 400 μmol/L EXE, NADPH regeneration system, 37°C, 4 h; for identified as phase I EXE metabolite in incubations of EXE with pooled human liver microsomes: comparison to reference compounds
# aromatase = test system: aromatase; set-up: method as in Buzzetti et al. 1993; details: ref Buzzetti et al. 1993; cited from earlier work
SMILES,IC50 [1],identified as phase I EXE metabolite in incubations of EXE with pooled human liver microsomes [2],also measured
"C[C@]12CC[C@H]3[C@@H](C=C(CO)C4=CC(=O)C=C[C@@]43C)[C@@H]1CC[C@@H]2O [17β-hydroxy-6-hydroxymethylandrosta-1,4,6-triene-3-one]",–,–,"IC50 ([1]; 15 μg HEK293 microsomes, 5 μmol/L androstenedione, NADPH regeneration system, 37°C, 2 h, read-out: IC50 for wild-type aromatase): > 100 µM"
"C[C@]12C=CC(=O)C=C1C(O)(CO)CC1C2CC[C@@]2(C)C1CC[C@@H]2O (stereo partly drawn) [6α/β,17β-dihydroxy-6α/β-hydroxymethylandrosta-1,4-diene-3-one]",> 100 µM,identified,–
"C[C@]12C=CC(=O)C=C1C(O)(CO)CC1C2CC[C@]2(C)C(=O)CCC12 (stereo partly drawn) [6α/β-hydroxy-6α/β-hydroxymethylandrosta-1,4-diene-3,17-dione]",> 100 µM,identified,–
"C[C@]12C=CC(=O)C=C1[C@]1(CO1)CC1C2CC[C@]2(C)C(=O)CCC12 (stereo partly drawn) [6β-spirooxiranandrosta-1,4-diene-3,17-dione]",5.7 ± 1.6 µM,–,–
"C[C@]12C=CC(=O)C=C1C(CO)=CC1C2CC[C@]2(C)C(=O)CCC12 (some centres unmarked) [6-hydroxymethylandrosta-1,4,6-triene-3,17-dione]",61 ± 20 µM,identified,fold less potent than EXE (wild type aromatase) ([1]; ratio of IC50 values versus EXE): 67 fold
"C[C@]12C=CC(=O)C=C1[C@@]1(CO1)CC1C2CC[C@]2(C)C(=O)CCC12 (stereo partly drawn) [6α-spirooxiranandrosta-1,4-diene-3,17-dione]",1.2 ± 0.19 µM,–,"fold more potency than its 6β stereoisomer (wild type aromatase) ([1]; ratio of IC50 values versus 6β-spirooxiranandrosta-1,4-diene-3,17-dione): ~5 fold"
C=C1CC2C(CC[C@@]3(C)C2CC[C@@H]3O)[C@@]2(C)C=CC(=O)C=C12 (stereo partly drawn) [17β-dihydroexemestane],–,identified,abundance of the EXE metabolite formed in human liver microsomes [2]: predominant EXE metabolite; fold less potent than EXE (earlier study) (aromatase): approximately 2.6 fold
